The results in this text go back to ChEMBL document CHEMBL1140637, “QSAR modeling of matrix metalloproteinase inhibition by N-hydroxy-alpha-phenylsulfonylacetamide derivatives” (Bioorg Med Chem, 2007).

For test [1], the target named is T1, Interstitial collagenase (Homo sapiens) (UniProt P03956).
T1 sequence (whole entry): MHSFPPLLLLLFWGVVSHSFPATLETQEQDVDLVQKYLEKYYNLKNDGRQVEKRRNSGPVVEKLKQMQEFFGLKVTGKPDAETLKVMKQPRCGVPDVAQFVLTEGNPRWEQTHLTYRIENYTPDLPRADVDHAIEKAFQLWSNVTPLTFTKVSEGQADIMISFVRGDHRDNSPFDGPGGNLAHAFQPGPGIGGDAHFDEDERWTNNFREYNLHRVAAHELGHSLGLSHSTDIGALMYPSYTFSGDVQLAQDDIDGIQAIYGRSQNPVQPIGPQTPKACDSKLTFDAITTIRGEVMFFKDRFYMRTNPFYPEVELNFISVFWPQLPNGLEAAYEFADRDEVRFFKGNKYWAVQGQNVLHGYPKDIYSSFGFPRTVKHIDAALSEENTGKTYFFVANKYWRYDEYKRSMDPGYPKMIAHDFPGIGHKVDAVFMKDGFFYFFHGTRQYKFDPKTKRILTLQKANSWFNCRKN
Put plainly: Inhibition of MMP1.

In test [2] the target is Collagenase 3 (Homo sapiens) (UniProt P45452).
The target in test [3] is Matrix metalloproteinase-9 (Homo sapiens) (UniProt P14780). Put plainly: Inhibition of MMP9.

The structures appear in SMILES notation.

Sequence of Matrix metalloproteinase-9 (Homo sapiens) (P14780 whole entry): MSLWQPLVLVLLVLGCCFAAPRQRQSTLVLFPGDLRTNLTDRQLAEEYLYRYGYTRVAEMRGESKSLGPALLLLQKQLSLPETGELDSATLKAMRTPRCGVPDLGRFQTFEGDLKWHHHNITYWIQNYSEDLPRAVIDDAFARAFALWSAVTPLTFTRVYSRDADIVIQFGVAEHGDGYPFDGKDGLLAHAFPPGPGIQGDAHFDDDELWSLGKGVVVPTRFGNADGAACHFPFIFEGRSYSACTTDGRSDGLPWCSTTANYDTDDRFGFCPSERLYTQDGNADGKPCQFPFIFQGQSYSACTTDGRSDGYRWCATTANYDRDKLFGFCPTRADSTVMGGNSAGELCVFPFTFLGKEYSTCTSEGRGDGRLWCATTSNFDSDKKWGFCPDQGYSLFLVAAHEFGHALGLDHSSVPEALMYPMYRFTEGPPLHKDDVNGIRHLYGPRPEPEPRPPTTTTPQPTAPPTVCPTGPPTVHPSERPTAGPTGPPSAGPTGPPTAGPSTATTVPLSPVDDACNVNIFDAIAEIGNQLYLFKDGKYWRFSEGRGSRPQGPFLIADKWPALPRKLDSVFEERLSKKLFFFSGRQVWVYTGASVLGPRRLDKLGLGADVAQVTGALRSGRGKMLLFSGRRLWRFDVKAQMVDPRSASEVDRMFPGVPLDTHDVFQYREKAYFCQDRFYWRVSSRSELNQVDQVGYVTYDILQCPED

`COc1ccc(S(=O)(=O)C2(C(=O)NO)CCN(Cc3ccc(F)cc3)CC2)cc1`: the log(10^6/IC50) in test [1] came out at 3.18; in test [2], 5.7; in test [3], 4.8.

For `COc1ccc(S(=O)(=O)C(C)(Cc2ccc(-c3ccccc3)cc2)C(=O)NO)cc1` (stereo unspecified), the log(10^6/IC50) is 3.8 in test [1] and 4.64 in test [3].

In the case of `COc1ccc(S(=O)(=O)[C@](C)(Cc2ccc(OCCN3CCCCC3)cc2)C(=O)NO)cc1`, the log(10^6/IC50) in test [1] was 3.62; in test [3], 5.05.

For `CCCCOc1ccc(S(=O)(=O)C2(C(=O)NO)CCN(Cc3cccc(OC)c3)CC2)cc1`, the values for the log(10^6/IC50) in test [1] and in test [3] were 2.82 and 5.52, respectively.

Regarding `COc1ccc(S(=O)(=O)C2(C(=O)NO)CCN(Cc3ccc(-c4ccccc4)cc3)CC2)cc1`, the log(10^6/IC50) in test [1] is 2.88; in test [2], 5.52; in test [3], 4.89.

In the case of `C=C(C)[C@@](C)(C(=O)NO)S(=O)(=O)c1ccc(OC)cc1`, the results for the log(10^6/IC50) in test [1], in test [2] and in test [3] were 3.62, 4.85 and 4.96, respectively.

With `CCCCN1CCC(C(=O)NO)(S(=O)(=O)c2ccc(Oc3ccc(Cl)cc3)cc2)CC1`, the log(10^6/IC50) was 2.97 in test [1], 6 in test [2] and 6 in test [3].

Consider `CCCCOc1ccc(S(=O)(=O)C2(C(=O)NO)CCN(CC)CC2)cc1`, for which the log(10^6/IC50) in test [1] came to 2.15; in test [2] it was 5.7; in test [3] it was 4.37.

As for `COc1ccc(S(=O)(=O)C2(C(=O)NO)CCN(Cc3ccc(Cl)c(Cl)c3)CC2)cc1`, the log(10^6/IC50) in test [1] was determined as 3.35; in test [2] it was 5.7; in test [3], 5.22.

Regarding `C#CC[C@](Cc1cccnc1)(C(=O)NO)S(=O)(=O)c1ccc(OC)cc1`, the log(10^6/IC50) amounted to 3.17 in test [1], 4.49 in test [2] and 4.08 in test [3].

Turning to `CCCCOc1ccc(S(=O)(=O)C2(C(=O)NO)CCN(C)CC2)cc1`, the figures for the log(10^6/IC50) in test [1], in test [2] and in test [3] were 2.47, 5.7 and 5, respectively.

In the case of `C=C(C)N1CCC(C(=O)NO)(S(=O)(=O)c2ccc(OC)cc2)CC1`, the log(10^6/IC50) in test [1] stood at 2.86; in test [2] it was 5.15; in test [3], 4.41.

Take `O=C(NO)C1(S(=O)(=O)c2ccc(Oc3ccc(Cl)cc3)cc2)CCNCC1`: the log(10^6/IC50) in test [1] stood at 2.9; in test [2], 5.7; in test [3], 5.7.

As for `O=C(NO)C1(S(=O)(=O)c2ccc(OCc3ccccc3)cc2)CCN(Cc2ccccc2)CC1`, in test [3], the log(10^6/IC50) came out at 5.52.

As for `COc1ccc(S(=O)(=O)C2(C(=O)NO)CCN(CCOc3ccccc3)CC2)cc1`, the log(10^6/IC50) stood at 3.2 in test [1], 5.52 in test [2] and 4.59 in test [3].

With `COc1ccc(CN2CCC(C(=O)NO)(S(=O)(=O)c3ccc(Oc4ccc(Cl)cc4)cc3)CC2)cc1`, the log(10^6/IC50) in test [1] stood at 3.31; in test [3], 6.

For `COc1ccc(S(=O)(=O)C2(C(=O)NO)CCN(Cc3ccc(-c4cccs4)cc3)CC2)cc1`, the log(10^6/IC50) in test [1] came to 3.27; in test [2] it was 5.52; in test [3], 4.96.

For `COc1ccc(S(=O)(=O)C2(C(=O)NO)CCN(Cc3ccccc3)CC2)cc1`, the log(10^6/IC50) is 3.31 in test [1], 5.7 in test [2] and 5 in test [3].

Regarding `COc1ccc(S(=O)(=O)[C@](CCC(C)C)(Cc2cccnc2)C(=O)NO)cc1`, the log(10^6/IC50) amounted to 3.24 in test [1] and 4.05 in test [2].

As to `COc1ccc(S(=O)(=O)C2(C(=O)NO)CCN(CCCOc3ccccc3)CC2)cc1`, the log(10^6/IC50) in test [1] worked out at 2.92; in test [2] it was 5.4; in test [3] it was 4.36.

Consider `O=C(NO)C1(S(=O)(=O)c2ccc(-c3ccco3)cc2)CCN(Cc2ccccc2)CC1`, for which the log(10^6/IC50) stood at 4.4 in test [1] and 5.52 in test [3].

For `COc1ccc(S(=O)(=O)C(C)(C/C=C/c2ccccc2)C(=O)NO)cc1` (stereo unspecified), the figures for the log(10^6/IC50) in test [1], in test [2] and in test [3] were 3.52, 4.92 and 4.8, respectively.

With `COc1ccc(S(=O)(=O)[C@@](C)(CC2CCCCC2)C(=O)NO)cc1`, the log(10^6/IC50) was determined as 3.49 in test [1], 4.62 in test [2] and 5.05 in test [3].

On to `O=C(NO)C1(S(=O)(=O)c2ccc(Oc3ccc(Cl)cc3)cc2)CCN(Cc2ccccc2)CC1`, for which the log(10^6/IC50) worked out at 3.1 in test [1], 6 in test [2] and 6 in test [3].

As to `COc1ccc(S(=O)(=O)C2(C(=O)NO)CCN(Cc3ccc4ccccc4c3)CC2)cc1`, the log(10^6/IC50) in test [1] came to 3.43; in test [3] it was 5.3.

As for `CCN1CCC(C(=O)NO)(S(=O)(=O)c2ccc(Oc3ccc(Cl)cc3)cc2)CC1`, the log(10^6/IC50) in test [1] came to 2.76; in test [2], 6; in test [3] it was 6.

As for `CCCCOc1ccc(S(=O)(=O)C2(C(=O)NO)CCN(Cc3ccc(Cl)c(Cl)c3)CC2)cc1`, the log(10^6/IC50) in test [1] was found to be 2.44; in test [2], 5.3; in test [3], 4.7.

Consider `COc1ccc(S(=O)(=O)C2(C(=O)NO)CCN(C(C)C)CC2)cc1`, for which the log(10^6/IC50) in test [1] came to 2.35; in test [2], 4.47; in test [3], 3.43.

On to `COc1ccc(S(=O)(=O)C2(C(=O)NO)CCN(Cc3ccc(OCCN4CCCCC4)cc3)CC2)cc1`, for which the log(10^6/IC50) in test [1] was 3.41; in test [2] it was 5.52; in test [3], 5.52.

Regarding `CCCCOc1ccc(S(=O)(=O)C2(C(=O)NO)CCN(CCCOc3ccccc3)CC2)cc1`, the log(10^6/IC50) in test [1] amounted to 2.42; in test [3] it was 5.3.

Turning to `CCCCOc1ccc(S(=O)(=O)C2(C(=O)NO)CCN(CCOc3ccccc3)CC2)cc1`, the log(10^6/IC50) was determined as 2.54 in test [1] and 5.3 in test [3].

Regarding `COc1ccc(CCN2CCC(C(=O)NO)(S(=O)(=O)c3ccc(OC)cc3)CC2)cc1`, the log(10^6/IC50) turned out to be 3.18 in test [1], 5.7 in test [2] and 4.47 in test [3].

As to `COc1ccc(S(=O)(=O)C2(C(=O)NO)CCN(Cc3ccc(-c4ccccn4)cc3)CC2)cc1`, the log(10^6/IC50) turned out to be 3.37 in test [1] and 5.22 in test [3].

Regarding `COc1ccc(S(=O)(=O)[C@](C)(Cc2ccc(OCCCN3CCN(c4cccc(Cl)c4)CC3)cc2)C(=O)NO)cc1`, the log(10^6/IC50) in test [1] stood at 3.23; in test [2] it was 5.4; in test [3], 5.15.

Consider `CCCCOc1ccc(S(=O)(=O)C2(C(=O)NO)CCN(Cc3ccc(OCCN4CCCCC4)cc3)CC2)cc1`, for which the log(10^6/IC50) was 2.71 in test [1] and 5.7 in test [3].

`CCN(CC)CCOc1ccc(C[C@](C)(C(=O)NO)S(=O)(=O)c2ccc(-c3ccco3)cc2)cc1`: the results for the log(10^6/IC50) in test [1], in test [2] and in test [3] were 4.85, 5.7 and 5.4, respectively.

Take `COc1ccc(S(=O)(=O)C2(C(=O)NO)CCN(Cc3cccc(OC)c3)CC2)cc1`: the log(10^6/IC50) worked out at 3.28 in test [1], 5.7 in test [2] and 5.05 in test [3].

Regarding `COc1ccc(S(=O)(=O)C2(C(=O)NO)CCN(Cc3ccc(C)cc3)CC2)cc1`, the log(10^6/IC50) is 3.31 in test [1], 5.7 in test [2] and 4.77 in test [3].

Regarding `CCCCOc1ccc(S(=O)(=O)C2(C(=O)NO)CCN(CCCC)CC2)cc1`, the log(10^6/IC50) in test [2] came out at 5.7; in test [3], 4.55.

Consider `COc1ccc(S(=O)(=O)C2(C(=O)NO)CCN(C(C)(C)C)CC2)cc1`, for which the log(10^6/IC50) in test [2] is 3.83; in test [3], 3.19.

In the case of `CCC(CC)COc1ccc(S(=O)(=O)C2(C(=O)NO)CCN(Cc3ccccc3)CC2)cc1`, the log(10^6/IC50) in test [1] is 2.5; in test [2], 5.3; in test [3], 4.85.

`CCN(CC)CCOc1ccc(CC(C)(C(=O)NO)S(=O)(=O)c2ccc(OC)cc2)cc1` (single isomer, unassigned): the log(10^6/IC50) in test [1] is 3.5; in test [2], 4.82; in test [3], 4.89.
